# In the kinase profiling compilation of Christmann-Franck et al. (2016):
# Tests used:
# Test in all cases: KINOMEscan competition binding
# Conditions in all cases: compound 10.0 µM
# [1] = molecular target: FGR (human) (UniProt P09769)
# [2] = molecular target: CSNK1G2 (human) (UniProt P78368)
# [3] = molecular target: FLT4 (human) (UniProt P35916)
# [4] = molecular target: BMPR2 (human) (UniProt Q13873)
# [5] = molecular target: MAPK3 (human) (UniProt P27361)
# [6] = molecular target: CAMK2A (human) (UniProt Q9UQM7)
# [7] = molecular target: EPHB2 (human) (UniProt P29323)
# [8] = molecular target: AURKA (human) (UniProt O14965)
# [9] = molecular target: SGK110 (human) (UniProt P0C264)
# [10] = molecular target: CDK3 (human) (UniProt Q00526)
# [11] = molecular target: ACVRL1 (human) (UniProt P37023)
# [12] = molecular target: HCK (human) (UniProt P08631)
# [13] = molecular target: MAP3K11 (human) (UniProt Q16584)
# [14] = molecular target: NEK5 (human) (UniProt Q6P3R8)
# [15] = molecular target: MAPK6 (human) (UniProt Q16659)
# [16] = molecular target: TNK2 (human) (UniProt Q07912)
# [17] = molecular target: MAPK4 (human) (UniProt P31152)
# [18] = molecular target: MUSK (human) (UniProt O15146)
# [19] = molecular target: PKMYT1 (human) (UniProt Q99640)
# [20] = molecular target: ULK3 (human) (UniProt Q6PHR2)
# [21] = molecular target: ANKK1 (human) (UniProt Q8NFD2)
# [22] = molecular target: MYO3A (human) (UniProt Q8NEV4)
# [23] = molecular target: ERBB2 (human) (UniProt P04626)
# [24] = molecular target: TEC (human) (UniProt P42680)
# [25] = molecular target: CAMK2G (human) (UniProt Q13555)
# [26] = molecular target: PAK3 (human) (UniProt O75914)
# [27] = molecular target: MAP4K1 (human) (UniProt Q92918)
# [28] = molecular target: EPHA5 (human) (UniProt P54756)
# [29] = molecular target: PRKACA (human) (UniProt P17612)
# [30] = molecular target: MAP2K6 (human) (UniProt P52564)
# [31] = molecular target: PHKG1 (human) (UniProt Q16816)
# [32] = molecular target: NEK7 (human) (UniProt Q8TDX7)
# [33] = molecular target: NUAK2 (human) (UniProt Q9H093)
# [34] = molecular target: MET (human) (UniProt P08581)
# [35] = molecular target: CAMK1D (human) (UniProt Q8IU85)
# [36] = molecular target: PRKCH (human) (UniProt P24723)
# [37] = molecular target: PLK3 (human) (UniProt Q9H4B4)
# [38] = molecular target: MARK3 (human) (UniProt P27448)
# [39] = molecular target: AKT2 (human) (UniProt P31751)
# [40] = molecular target: LTK (human) (UniProt P29376)
# [41] = molecular target: FRK (human) (UniProt P42685)
# [42] = molecular target: IRAK3 (human) (UniProt Q9Y616)
# [43] = molecular target: PKN1 (human) (UniProt Q16512)
# PKN1 (human), sequence (Q16512 whole entry, looked up): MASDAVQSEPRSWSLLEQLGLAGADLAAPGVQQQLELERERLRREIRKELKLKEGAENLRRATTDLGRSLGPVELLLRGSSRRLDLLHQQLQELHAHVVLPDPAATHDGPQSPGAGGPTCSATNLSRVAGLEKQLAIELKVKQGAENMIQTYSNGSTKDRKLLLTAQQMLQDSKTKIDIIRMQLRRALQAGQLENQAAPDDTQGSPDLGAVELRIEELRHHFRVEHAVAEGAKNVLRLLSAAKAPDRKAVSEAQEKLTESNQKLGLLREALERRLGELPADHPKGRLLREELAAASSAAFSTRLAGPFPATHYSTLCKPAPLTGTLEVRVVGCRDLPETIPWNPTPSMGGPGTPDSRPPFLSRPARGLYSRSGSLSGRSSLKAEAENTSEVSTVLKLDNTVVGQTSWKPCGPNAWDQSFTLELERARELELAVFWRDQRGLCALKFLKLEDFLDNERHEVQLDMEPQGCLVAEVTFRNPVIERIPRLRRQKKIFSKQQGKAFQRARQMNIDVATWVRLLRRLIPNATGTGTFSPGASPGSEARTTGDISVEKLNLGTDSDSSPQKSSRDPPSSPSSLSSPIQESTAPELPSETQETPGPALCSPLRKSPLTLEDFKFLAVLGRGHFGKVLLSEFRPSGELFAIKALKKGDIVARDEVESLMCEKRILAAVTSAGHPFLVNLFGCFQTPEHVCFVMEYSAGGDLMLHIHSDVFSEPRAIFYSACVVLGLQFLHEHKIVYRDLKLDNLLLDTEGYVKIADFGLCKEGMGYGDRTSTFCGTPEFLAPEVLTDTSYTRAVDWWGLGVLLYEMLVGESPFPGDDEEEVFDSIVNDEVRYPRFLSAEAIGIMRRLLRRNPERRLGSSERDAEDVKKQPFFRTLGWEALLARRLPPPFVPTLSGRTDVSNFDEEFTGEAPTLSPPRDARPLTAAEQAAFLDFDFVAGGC
# PLK3 (human), sequence (Q9H4B4 whole entry, looked up): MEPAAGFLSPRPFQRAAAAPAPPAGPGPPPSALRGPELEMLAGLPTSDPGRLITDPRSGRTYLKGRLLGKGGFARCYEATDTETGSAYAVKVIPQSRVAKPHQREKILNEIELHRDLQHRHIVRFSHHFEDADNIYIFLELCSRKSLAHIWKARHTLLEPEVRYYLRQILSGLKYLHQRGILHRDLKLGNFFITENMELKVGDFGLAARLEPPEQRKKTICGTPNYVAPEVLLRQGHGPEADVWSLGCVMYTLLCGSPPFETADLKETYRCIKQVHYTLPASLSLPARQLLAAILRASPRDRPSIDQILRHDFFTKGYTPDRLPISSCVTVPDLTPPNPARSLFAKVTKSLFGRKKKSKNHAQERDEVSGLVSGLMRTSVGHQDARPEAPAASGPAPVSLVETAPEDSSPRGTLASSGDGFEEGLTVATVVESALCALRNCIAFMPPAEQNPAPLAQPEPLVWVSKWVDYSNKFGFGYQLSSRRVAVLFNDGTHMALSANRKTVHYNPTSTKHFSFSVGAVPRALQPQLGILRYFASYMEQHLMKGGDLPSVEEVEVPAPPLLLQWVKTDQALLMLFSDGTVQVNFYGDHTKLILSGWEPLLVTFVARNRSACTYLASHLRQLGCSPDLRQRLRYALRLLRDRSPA
# CAMK2G (human), sequence (Q13555 whole entry, looked up): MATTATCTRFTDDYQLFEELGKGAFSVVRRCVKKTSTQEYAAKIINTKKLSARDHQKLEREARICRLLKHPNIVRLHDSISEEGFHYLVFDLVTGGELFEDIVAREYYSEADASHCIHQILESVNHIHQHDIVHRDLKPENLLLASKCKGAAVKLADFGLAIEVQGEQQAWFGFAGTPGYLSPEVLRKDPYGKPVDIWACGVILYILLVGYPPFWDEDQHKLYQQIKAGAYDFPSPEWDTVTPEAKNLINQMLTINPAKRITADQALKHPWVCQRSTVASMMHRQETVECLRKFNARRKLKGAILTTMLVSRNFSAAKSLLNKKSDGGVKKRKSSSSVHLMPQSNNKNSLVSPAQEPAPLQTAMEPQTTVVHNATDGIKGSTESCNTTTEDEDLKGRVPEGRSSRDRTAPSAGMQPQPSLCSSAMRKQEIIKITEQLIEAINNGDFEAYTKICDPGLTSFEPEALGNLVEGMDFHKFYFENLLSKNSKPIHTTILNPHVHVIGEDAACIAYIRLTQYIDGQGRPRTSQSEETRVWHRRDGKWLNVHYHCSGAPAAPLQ
# TNK2 (human), sequence (Q07912 whole entry, looked up): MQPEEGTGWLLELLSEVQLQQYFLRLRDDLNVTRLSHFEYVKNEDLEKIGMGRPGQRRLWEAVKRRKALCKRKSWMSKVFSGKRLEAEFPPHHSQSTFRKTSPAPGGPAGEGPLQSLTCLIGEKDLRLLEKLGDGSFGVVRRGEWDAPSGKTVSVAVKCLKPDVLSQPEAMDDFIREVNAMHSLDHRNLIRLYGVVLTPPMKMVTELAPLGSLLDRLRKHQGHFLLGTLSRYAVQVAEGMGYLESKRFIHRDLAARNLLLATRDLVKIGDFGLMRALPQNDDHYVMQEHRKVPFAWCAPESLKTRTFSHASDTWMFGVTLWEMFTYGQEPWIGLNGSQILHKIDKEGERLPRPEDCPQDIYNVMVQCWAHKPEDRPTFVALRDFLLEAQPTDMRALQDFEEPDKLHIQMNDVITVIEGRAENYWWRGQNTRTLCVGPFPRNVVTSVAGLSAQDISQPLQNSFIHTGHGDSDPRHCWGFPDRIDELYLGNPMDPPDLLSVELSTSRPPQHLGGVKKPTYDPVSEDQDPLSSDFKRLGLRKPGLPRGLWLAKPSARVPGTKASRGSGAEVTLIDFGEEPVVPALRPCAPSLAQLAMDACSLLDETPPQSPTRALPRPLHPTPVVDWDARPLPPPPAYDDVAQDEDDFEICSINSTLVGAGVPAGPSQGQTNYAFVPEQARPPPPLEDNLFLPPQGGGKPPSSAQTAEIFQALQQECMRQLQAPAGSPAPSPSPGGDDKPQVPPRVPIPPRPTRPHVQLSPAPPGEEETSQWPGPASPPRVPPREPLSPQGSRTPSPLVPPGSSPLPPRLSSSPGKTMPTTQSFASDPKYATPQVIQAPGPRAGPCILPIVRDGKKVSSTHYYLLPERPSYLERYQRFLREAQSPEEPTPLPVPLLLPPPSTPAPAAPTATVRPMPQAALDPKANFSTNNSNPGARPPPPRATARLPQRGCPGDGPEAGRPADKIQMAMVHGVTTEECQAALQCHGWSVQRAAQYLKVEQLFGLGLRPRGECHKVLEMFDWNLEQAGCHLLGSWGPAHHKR
# MARK3 (human), sequence (P27448 whole entry, looked up): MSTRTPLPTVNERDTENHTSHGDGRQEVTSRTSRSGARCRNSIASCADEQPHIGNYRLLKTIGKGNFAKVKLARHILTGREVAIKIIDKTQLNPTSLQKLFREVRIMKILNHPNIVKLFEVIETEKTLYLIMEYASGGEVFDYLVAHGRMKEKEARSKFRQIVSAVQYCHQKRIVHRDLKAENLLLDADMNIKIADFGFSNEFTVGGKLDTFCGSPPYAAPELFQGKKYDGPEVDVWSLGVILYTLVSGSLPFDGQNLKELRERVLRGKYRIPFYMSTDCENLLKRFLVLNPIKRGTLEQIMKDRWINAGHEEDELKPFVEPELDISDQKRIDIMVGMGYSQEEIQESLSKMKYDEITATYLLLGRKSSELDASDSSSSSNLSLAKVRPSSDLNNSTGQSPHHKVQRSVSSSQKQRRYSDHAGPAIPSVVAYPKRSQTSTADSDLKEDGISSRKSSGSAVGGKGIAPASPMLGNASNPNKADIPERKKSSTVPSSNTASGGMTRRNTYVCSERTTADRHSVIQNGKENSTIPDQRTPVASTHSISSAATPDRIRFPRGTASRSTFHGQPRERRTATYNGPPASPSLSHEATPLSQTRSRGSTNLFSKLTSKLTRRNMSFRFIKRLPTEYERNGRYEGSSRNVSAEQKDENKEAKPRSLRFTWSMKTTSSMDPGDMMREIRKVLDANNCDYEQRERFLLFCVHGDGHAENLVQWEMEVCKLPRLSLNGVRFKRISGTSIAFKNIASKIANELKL
# IRAK3 (human), sequence (Q9Y616 whole entry, looked up): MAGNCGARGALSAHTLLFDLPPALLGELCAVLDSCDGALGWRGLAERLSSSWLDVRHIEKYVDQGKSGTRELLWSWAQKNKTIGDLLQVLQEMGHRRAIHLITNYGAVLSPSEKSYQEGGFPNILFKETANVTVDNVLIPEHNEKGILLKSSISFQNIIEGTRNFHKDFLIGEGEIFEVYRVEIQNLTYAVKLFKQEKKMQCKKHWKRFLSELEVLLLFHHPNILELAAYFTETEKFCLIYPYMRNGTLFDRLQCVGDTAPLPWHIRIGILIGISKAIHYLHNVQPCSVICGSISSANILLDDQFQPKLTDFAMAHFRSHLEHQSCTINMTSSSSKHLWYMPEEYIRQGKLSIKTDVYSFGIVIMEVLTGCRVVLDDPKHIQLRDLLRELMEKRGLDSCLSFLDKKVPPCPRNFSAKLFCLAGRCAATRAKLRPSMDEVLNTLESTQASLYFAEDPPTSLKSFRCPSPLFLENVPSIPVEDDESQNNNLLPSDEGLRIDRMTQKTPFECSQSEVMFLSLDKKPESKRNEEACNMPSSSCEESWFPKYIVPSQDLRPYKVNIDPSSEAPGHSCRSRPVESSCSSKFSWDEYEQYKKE
# AURKA (human), sequence (O14965 whole entry, looked up): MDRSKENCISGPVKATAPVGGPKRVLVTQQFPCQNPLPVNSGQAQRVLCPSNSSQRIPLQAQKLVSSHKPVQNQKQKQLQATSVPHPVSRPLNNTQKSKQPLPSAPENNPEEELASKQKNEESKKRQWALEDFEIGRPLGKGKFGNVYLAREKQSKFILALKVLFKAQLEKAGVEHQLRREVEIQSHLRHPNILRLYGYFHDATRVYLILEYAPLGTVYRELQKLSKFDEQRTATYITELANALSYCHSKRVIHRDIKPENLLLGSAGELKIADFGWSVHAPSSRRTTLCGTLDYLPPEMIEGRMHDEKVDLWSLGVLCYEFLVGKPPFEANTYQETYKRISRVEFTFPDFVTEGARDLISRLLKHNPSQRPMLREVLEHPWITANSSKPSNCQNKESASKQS
smiles,measurement,setting,value
CS(=O)(=O)Nc1ccc(-c2ncc(/C=C3\SC(=N)NC3=O)s2)cc1,"kinase still bound, per cent of control",[1],26%
same,"kinase still bound, per cent of control",[2],14%
same,"kinase still bound, per cent of control",[3],3.6%
Nc1cccc(-c2cc(/C=C3\SC(=O)NC3=O)c[nH]c2=O)c1,"kinase still bound, per cent of control",[2],19%
same,"kinase still bound, per cent of control",[4],29%
CN1CCN(c2ccc(C(=O)Nc3ncc4c(n3)N(C)c3ccccc3C(=O)N4C)cc2)CC1,"kinase still bound, per cent of control",[5],100%
same,"kinase still bound, per cent of control",[6],100%
same,"kinase still bound, per cent of control",[7],91%
same,"kinase still bound, per cent of control",[8],96%
same,"kinase still bound, per cent of control",[9],100%
same,"kinase still bound, per cent of control",[10],100%
same,"kinase still bound, per cent of control",[11],98%
same,"kinase still bound, per cent of control",[12],100%
same,"kinase still bound, per cent of control",[1],100%
same,"kinase still bound, per cent of control",[13],100%
same,"kinase still bound, per cent of control",[14],100%
same,"kinase still bound, per cent of control",[15],70%
same,"kinase still bound, per cent of control",[16],92%
same,"kinase still bound, per cent of control",[17],100%
same,"kinase still bound, per cent of control",[18],100%
same,"kinase still bound, per cent of control",[19],93%
same,"kinase still bound, per cent of control",[20],100%
same,"kinase still bound, per cent of control",[21],28%
same,"kinase still bound, per cent of control",[22],100%
same,"kinase still bound, per cent of control",[23],88%
same,"kinase still bound, per cent of control",[24],93%
same,"kinase still bound, per cent of control",[25],100%
same,"kinase still bound, per cent of control",[2],100%
same,"kinase still bound, per cent of control",[26],79%
same,"kinase still bound, per cent of control",[27],98%
same,"kinase still bound, per cent of control",[28],100%
same,"kinase still bound, per cent of control",[29],100%
same,"kinase still bound, per cent of control",[30],100%
same,"kinase still bound, per cent of control",[31],98%
same,"kinase still bound, per cent of control",[32],100%
same,"kinase still bound, per cent of control",[33],100%
same,"kinase still bound, per cent of control",[34],100%
same,"kinase still bound, per cent of control",[35],100%
same,"kinase still bound, per cent of control",[36],95%
same,"kinase still bound, per cent of control",[37],100%
same,"kinase still bound, per cent of control",[4],100%
same,"kinase still bound, per cent of control",[38],100%
same,"kinase still bound, per cent of control",[39],100%
same,"kinase still bound, per cent of control",[40],86%
same,"kinase still bound, per cent of control",[41],100%
same,"kinase still bound, per cent of control",[42],92%
same,"kinase still bound, per cent of control",[3],100%
same,"kinase still bound, per cent of control",[43],100%
O=C1NC(=O)/C(=C/c2c[nH]c(=O)c(-c3ccc(N4CCNCC4)nc3)c2)S1,"kinase still bound, per cent of control",[5],94%
same,"kinase still bound, per cent of control",[6],7.8%
same,"kinase still bound, per cent of control",[7],71%
same,"kinase still bound, per cent of control",[8],100%
same,"kinase still bound, per cent of control",[9],100%
same,"kinase still bound, per cent of control",[10],100%
same,"kinase still bound, per cent of control",[11],100%
same,"kinase still bound, per cent of control",[12],100%
same,"kinase still bound, per cent of control",[1],84%
same,"kinase still bound, per cent of control",[13],100%
same,"kinase still bound, per cent of control",[14],100%
same,"kinase still bound, per cent of control",[15],93%
same,"kinase still bound, per cent of control",[16],100%
same,"kinase still bound, per cent of control",[17],100%
same,"kinase still bound, per cent of control",[18],97%
same,"kinase still bound, per cent of control",[19],100%
same,"kinase still bound, per cent of control",[20],100%
same,"kinase still bound, per cent of control",[21],70%
same,"kinase still bound, per cent of control",[22],46%
same,"kinase still bound, per cent of control",[23],57%
same,"kinase still bound, per cent of control",[24],84%
same,"kinase still bound, per cent of control",[25],65%
same,"kinase still bound, per cent of control",[2],3.6%
same,"kinase still bound, per cent of control",[26],86%
same,"kinase still bound, per cent of control",[27],10%
same,"kinase still bound, per cent of control",[28],100%
same,"kinase still bound, per cent of control",[29],100%
same,"kinase still bound, per cent of control",[30],100%
same,"kinase still bound, per cent of control",[31],29%
same,"kinase still bound, per cent of control",[32],100%
same,"kinase still bound, per cent of control",[33],37%
same,"kinase still bound, per cent of control",[34],97%
same,"kinase still bound, per cent of control",[35],48%
same,"kinase still bound, per cent of control",[36],100%
same,"kinase still bound, per cent of control",[37],85%
same,"kinase still bound, per cent of control",[4],19%
same,"kinase still bound, per cent of control",[38],100%
same,"kinase still bound, per cent of control",[39],100%
same,"kinase still bound, per cent of control",[40],100%
same,"kinase still bound, per cent of control",[41],90%
same,"kinase still bound, per cent of control",[42],100%
same,"kinase still bound, per cent of control",[3],90%
same,"kinase still bound, per cent of control",[43],28%
CN1C(=O)[C@H]2CCC[C@H]2N(C2CCCC2)c2nc(Nc3ccc(C(N)=O)cc3)ncc21,"kinase still bound, per cent of control",[8],7.6%
same,"kinase still bound, per cent of control",[9],30%
same,"kinase still bound, per cent of control",[14],9%
same,"kinase still bound, per cent of control",[21],26%
same,"kinase still bound, per cent of control",[34],4.5%
same,"kinase still bound, per cent of control",[37],4.7%
same,"kinase still bound, per cent of control",[4],23%
same,"kinase still bound, per cent of control",[43],30%
O=C1NC(=S)S/C1=C\c1ccc(-c2cncc3ccccc23)o1,"kinase still bound, per cent of control",[6],22%
same,"kinase still bound, per cent of control",[16],34%
same,"kinase still bound, per cent of control",[21],34%
same,"kinase still bound, per cent of control",[22],19%
same,"kinase still bound, per cent of control",[25],32%
same,"kinase still bound, per cent of control",[30],24%
same,"kinase still bound, per cent of control",[32],17%
same,"kinase still bound, per cent of control",[35],28%
same,"kinase still bound, per cent of control",[40],13%
same,"kinase still bound, per cent of control",[42],7.9%
same,"kinase still bound, per cent of control",[3],28%
N=C1NC(=O)/C(=C/c2ccc(-c3ccc(C(N)=O)cc3O)o2)S1,"kinase still bound, per cent of control",[6],28%
same,"kinase still bound, per cent of control",[10],30%
N=C1NC(=O)/C(=C/c2c[nH]c(=O)c(-c3ccc(N4CCNCC4)nc3)c2)S1,"kinase still bound, per cent of control",[33],26%
N=C1NC(=O)/C(=C/c2ccc(-c3ccccc3O)o2)S1,"kinase still bound, per cent of control",[10],24%
N=C1NC(=O)/C(=C/c2ccc(-c3ccc(F)cc3O)o2)S1,"kinase still bound, per cent of control",[10],6.5%
CS(=O)(=O)Nc1ccc(-c2cncc(/C=C3\SC(=N)NC3=O)c2)cc1,"kinase still bound, per cent of control",[11],3.6%
same,"kinase still bound, per cent of control",[2],0.75%
same,"kinase still bound, per cent of control",[3],28%
N=C1NC(=O)/C(=C/c2ccc(-c3cncc4ccccc34)o2)S1,"kinase still bound, per cent of control",[6],10%
same,"kinase still bound, per cent of control",[22],24%
same,"kinase still bound, per cent of control",[25],11%
same,"kinase still bound, per cent of control",[31],23%
same,"kinase still bound, per cent of control",[32],15%
same,"kinase still bound, per cent of control",[35],9%
same,"kinase still bound, per cent of control",[37],16%
same,"kinase still bound, per cent of control",[42],11%
same,"kinase still bound, per cent of control",[43],28%
CSC1=NC(=O)/C(=C/c2c[nH]c(=O)c(-c3ccc(NS(C)(=O)=O)cc3)c2)S1,"kinase still bound, per cent of control",[33],32%
N=C1NC(=O)/C(=C/c2ccc(-c3csc4ccccc34)o2)S1,"kinase still bound, per cent of control",[32],33%
same,"kinase still bound, per cent of control",[38],20%
